Here are results for 38 compounds from patent US8017611B2, “Pyridine and pyrazine derivatives -083” (AstraZeneca AB, priority 2007, dated 2011).

In one assay the target is T1, recombinant Axl tyrosine kinase (Homo sapiens, UniProt P30530).
T1 construct: encompassing amino acids 473 to 894 of Axl; GST (N); made in house; host or cells: SF126 insect cells
T1 sequence (P30530 473-894): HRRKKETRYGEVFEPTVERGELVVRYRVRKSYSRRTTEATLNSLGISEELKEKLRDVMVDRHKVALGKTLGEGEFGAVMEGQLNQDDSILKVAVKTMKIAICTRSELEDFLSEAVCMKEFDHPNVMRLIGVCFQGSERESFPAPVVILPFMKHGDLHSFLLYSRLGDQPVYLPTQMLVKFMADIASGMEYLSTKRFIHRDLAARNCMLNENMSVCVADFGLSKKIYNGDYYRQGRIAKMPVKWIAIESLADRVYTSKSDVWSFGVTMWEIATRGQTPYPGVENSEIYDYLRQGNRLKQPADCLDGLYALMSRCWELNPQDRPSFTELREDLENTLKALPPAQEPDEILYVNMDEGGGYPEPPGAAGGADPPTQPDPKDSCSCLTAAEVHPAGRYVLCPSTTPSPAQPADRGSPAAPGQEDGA
Put plainly: In vitro Axl kinase assay (AlphaScreen), Test (a). The class given is biochemical. The settings on record: 1 μM; mean calculated from a larger number of replicates than the first value.
For `Nc1ncc(-c2cccc(N3CCNCC3)c2)nc1-c1nc2ccccc2o1` [Example 20.2], the “% Axl tyrosine kinase inhibition at 1 μM concentration (second value, †)” value was 99.3%.
In the case of `Nc1ncc(-c2ccc(N3CCNCC3)nc2)nc1-c1nc2ccccc2o1` [Example 20.3], the “% Axl tyrosine kinase inhibition at 1 μM concentration (second value, †)” value is on record as 98.7%.
On to `Nc1ncc(-c2ccc(CN3CCOCC3)cc2)nc1-c1nc2ccccc2o1` [Example 20.6], for which the “% Axl tyrosine kinase inhibition at 1 μM concentration (second value, †)” value was 99.2%.

Staying with this assay, now noted: test compound at 1 μM; first value quoted.
Take `CN(C)S(=O)(=O)c1cccc(-c2cnc(N)c(-c3nc4ccccc4o3)n2)c1` [Example 20.1]: the “% Axl tyrosine kinase inhibition at 1 μM concentration” value was found to be 91.8%.
Turning to `Nc1ncc(-c2cccc(N3CCNCC3)c2)nc1-c1nc2ccccc2o1` [Example 20.2], the “% Axl tyrosine kinase inhibition at 1 μM concentration” value is on record as 99.6%.
Turning to `Nc1ncc(-c2ccc(N3CCNCC3)nc2)nc1-c1nc2ccccc2o1` [Example 20.3], the “% Axl tyrosine kinase inhibition at 1 μM concentration” value is given as 99.3%.
Take `Nc1ncc(-c2cccc(N3CCCCC3)c2)nc1-c1nc2ccccc2o1` [Example 20.4]: the “% Axl tyrosine kinase inhibition at 1 μM concentration” value is reported as 89.2%.
In the case of `Nc1ncc(-c2cccc(N3CCCC3)c2)nc1-c1nc2ccccc2o1` [Example 20.5], the “% Axl tyrosine kinase inhibition at 1 μM concentration” value is reported as 85.6%.
`Nc1ncc(-c2ccc(CN3CCOCC3)cc2)nc1-c1nc2ccccc2o1` [Example 20.6]: the “% Axl tyrosine kinase inhibition at 1 μM concentration” value worked out at 99.1%.
Same read-out and setting: as for `CN1CCN(c2ccc(-c3cnc(N)c(-c4nc5ccccc5o4)n3)cn2)CC1` [Example 20.7], the figure is 99.6%.
The same measure, in the same setting: as for `Nc1ncc(-c2cccc(N3CCOCC3)c2)nc1-c1nc2ccccc2o1` [Example 20.8], the figure is 98.9%; as for `CS(=O)(=O)c1cccc(-c2cnc(N)c(-c3nc4ccccc4o3)n2)c1` [Example 20.9], 92.1%.
As for `Nc1ncc(-c2cccc(CN3CCOCC3)c2)nc1-c1nc2ccccc2o1` [Example 20.10], the “% Axl tyrosine kinase inhibition at 1 μM concentration” value worked out at 99.1%.
The same measure, in the same setting: then `Nc1ncc(-c2ccc(N3CCNCC3)cc2)nc1-c1nc2ccccc2o1` [Example 20.11], with 100.0%; and `CN(C)S(=O)(=O)c1ccc(-c2cnc(N)c(-c3nc4ccccc4o3)n2)cc1` [Example 20.12], with 92.7%.
On to `CCS(=O)(=O)c1cccc(-c2cnc(N)c(-c3nc4ccccc4o3)n2)c1` [Example 20.13], for which the “% Axl tyrosine kinase inhibition at 1 μM concentration” value was found to be 97.2%.
On to `CN(C)c1cccc(-c2cnc(N)c(-c3nc4ccccc4o3)n2)c1` [Example 20.15], for which the “% Axl tyrosine kinase inhibition at 1 μM concentration” value stood at 96.9%.
Still for that read-out and setting: then `N#CCc1cccc(-c2cnc(N)c(-c3nc4ccccc4o3)n2)c1` [Example 20.16], with 99.6%; and `COCc1cccc(-c2cnc(N)c(-c3nc4ccccc4o3)n2)c1` [Example 20.17], with 98.8%.
On to `CS(=O)(=O)Oc1cccc(-c2cnc(N)c(-c3nc4ccccc4o3)n2)c1` [Example 20.18], for which the “% Axl tyrosine kinase inhibition at 1 μM concentration” value is 98.1%.
Consider `N#CCc1ccc(-c2cnc(N)c(-c3nc4ccccc4o3)n2)cc1` [Example 20.19], for which the “% Axl tyrosine kinase inhibition at 1 μM concentration” value was 98.3%.
For `N#CCC1(n2cc(-c3cnc(N)c(-c4nc5ccccc5o4)c3)cn2)CCNCC1` [Example 25.1], the “% Axl tyrosine kinase inhibition at 1 μM concentration” value came to 95.0%.
For `COc1nn(C2CCNCC2)cc1-c1cnc(N)c(-c2nc3ccccc3o2)c1` [Example 25.2], the “% Axl tyrosine kinase inhibition at 1 μM concentration” value was determined as 100.0%.
With `CCOc1nn(C2CCNCC2)cc1-c1cnc(N)c(-c2nc3ccccc3o2)c1` [Example 25.3], the “% Axl tyrosine kinase inhibition at 1 μM concentration” value was 100.0%.
Consider `CN1CCN(c2ccc(-c3cnc(N)c(-c4nc5ncccc5o4)c3)cc2)CC1` [Example 25.7], for which the “% Axl tyrosine kinase inhibition at 1 μM concentration” value is 99.1%.
In the case of `COc1cc(-c2cnc(N)c(-c3nc4ncccc4o3)c2)ccc1N1CCNCC1` [Example 25.8], the “% Axl tyrosine kinase inhibition at 1 μM concentration” value amounted to 99.8%.
As for `CN1CCN(c2ccc(-c3cnc(N)c(-c4nc5cccnc5o4)c3)cc2)CC1` [Example 25.10], the “% Axl tyrosine kinase inhibition at 1 μM concentration” value came out at 97.7%.
`CN1CCN(c2ncc(-c3cnc(N)c(-c4nc5cccnc5o4)c3)s2)CC1` [Example 25.12]: the “% Axl tyrosine kinase inhibition at 1 μM concentration” value is given as 38.2%.
Same read-out and setting: then `Cc1nn(C2CCNCC2)cc1-c1cnc(N)c(-c2nc3ncccc3o2)c1` [Example 25.16], with 99.9%; and `CN1CCCC(Cn2cc(-c3cnc(N)c(-c4nc5ccccc5o4)c3)cn2)C1` (stereo not drawn) [Example 27.1], with 100.0%.

Still in this assay, the particulars now being: test compound at 1 μM; first value quoted; read-out: % Axl tyrosine kinase inhibition at 1 μM concentration.
For `CN1CCC(n2cc(-c3cnc(N)c(-c4nc5ccccc5o4)n3)cn2)CC1` [Example 18, 3-(1,3-benzoxazol-2-yl)-5-[1-(1-methyl-4-piperidyl)pyrazol-4-yl]pyrazin-2-amine], the inhibition at 1 µM was 99.3%.
Turning to `Nc1ncc(-c2cnn(C3CCNCC3)c2)nc1-c1nc2ccccc2s1` [Example 19, 3-(1,3-Benzothiazol-2-yl)-5-[1-(4-piperidyl)pyrazol-4-yl]pyrazin-2-amine], the inhibition at 1 µM was determined as 99.6%.
In the case of `Cc1nn(C2CCNCC2)cc1-c1cnc(N)c(-c2nc3ccccc3o2)n1` [Example 20.20, 3-(1,3-benzoxazol-2-yl)-5-[3-methyl-1-(4-piperidyl)pyrazol-4-yl]pyrazin-2-amine], the inhibition at 1 µM is 99.9%.
The same measure, in the same setting: as for `Cc1nn(C2CCN(C(=O)OC(C)(C)C)CC2)cc1-c1cnc(N)c(-c2nc3ccccc3o2)c1` [Example 21, Tert-butyl 4-[4-[6-amino-5-(1,3-benzoxazol-2-yl)-3-pyridyl]-3-methyl-pyrazol-1-yl]piperidine-1-carboxylate], the figure is 9.7%; as for `Cc1c(-c2cnc(N)c(-c3nc4ccccc4o3)c2)cnn1C1CCNCC1` [Example 24, 3-(1,3-benzoxazol-2-yl)-5-[5-methyl-1-(4-piperidyl)pyrazol-4-yl]pyridin-2-amine], 100%; as for `CN1CCN(c2ncc(-c3cnc(N)c(-c4nc5ccccc5o4)c3)s2)CC1` [Example 25.5, 3-(1,3-benzoxazol-2-yl)-5-[2-(4-methylpiperazin-1-yl)thiazol-5-yl]pyridin-2-amine], 82.9%.
Regarding `COc1cc(N2CCN(C)CC2)ccc1-c1cnc(N)c(-c2nc3ncccc3o2)c1` [Example 25.6, 5-[2-methoxy-4-(4-methylpiperazin-1-yl)phenyl]-3-oxazolo[4,5-b]pyridin-2-yl-pyridin-2-amine], the inhibition at 1 µM came to 99.5%.
The same measure, in the same setting: as for `Nc1ncc(-c2cn(C3CCNCC3)nc2CO)cc1-c1nc2ccccc2o1` [Example 25.13, [4-[6-amino-5-(1,3-benzoxazol-2-yl)-3-pyridyl]-1-(4-piperidyl)pyrazol-3-yl]methanol], the figure is 100%; as for `COCc1nn(C2CCNCC2)cc1-c1cnc(N)c(-c2nc3ccccc3o2)c1` [Example 25.14, 3-(1,3-benzoxazol-2-yl)-5-[3-(methoxymethyl)-1-(4-piperidyl)pyrazol-4-yl]pyridin-2-amine], 100%; as for `Cc1nn(C2CCNCC2)cc1-c1cnc(N)c(-c2nc3c(F)cccc3o2)c1` [Example 25A, 3-(4-fluoro-1,3-benzoxazol-2-yl)-5-[3-methyl-1-(4-piperidyl)pyrazol-4-yl]pyridin-2-amine], 100%.
Regarding `Nc1ncc(-c2cnn(CCN3CCOCC3)c2)cc1-c1nc2ccccc2o1` [Example 26, 3-(1,3-benzoxazol-2-yl)-5-[1-(2-morpholinoethyl)pyrazol-4-yl]pyridin-2-amine], the inhibition at 1 µM turned out to be 99.3%.

The assay is the same for the next values; noted with them: test compound at 30 μM; read-out: % of Axl tyrosine kinase activity inhibited at a concentration of 30 μM.
Turning to `Cc1nn(C2CCN(C(=O)OC(C)(C)C)CC2)cc1-c1cnc(N)c(-c2nc3ccccc3o2)c1` [Example 21, Tert-butyl 4-[4-[6-amino-5-(1,3-benzoxazol-2-yl)-3-pyridyl]-3-methyl-pyrazol-1-yl]piperidine-1-carboxylate], the inhibition at 30 µM worked out at 76.4%.
